Test results taken from patent publication EP0568635B1, “IMPROVED GLYPHOSATE FORMULATIONS” (MONSANTO COMPANY, priority 1991, dated 1992).

Test system: Johnsongrass
Assay: Greenhouse bioassay test of herbicidal activity, pot-grown weeds sprayed with a track sprayer
Format: in vivo
Details: mean of four rates (1/4, 1/2, 3/4 and 1 pound glyphosate/acre; 0.28, 0.56, 0.84 and 1.12 kg/ha), 4 weeks after treatment, 0.25 % ethoxylated amine surfactant in all spray solutions
Procedure: The results of the bioassay test of the Example 2 formulation are shown below. Roundup herbicide was used as a comparative of the prior art.
In all of the greenhouse bioassay tests provided in this specification, pot-grown weed species were sprayed with aqueous solutions of the glyphosate WSP formulations using a track sprayer calibrated to apply about 20 gallons/acre (187 liters/hectare) at about 30 psi ([…]).
WSP formulations were prepared without Witconate surfactant. The surfactant was tank mixed into the spray solutions for bioassays.

Compound: CC(C)N.O=C(O)CNCP(=O)(O)O [Isopropylamine salt of glyphosate]
- % INHIBITION: 55.2%
